In the NIST ThermoML archive (doi:10.1021/acs.jced.7b00119):
Where “and” joins values, the source holds several entries; their conditions need not be identical. Equal entries are not always repeated.

Key:
[1] = Liquid, Closed cell (Static) method
[2] = excess molar enthalpy (molar enthalpy of mixing); xn = mol fraction of the nth substance listed; conditions: Liquid, Flow calorimetry

CCCCCC [hexane]
Conditions | vapor or sublimation pressure [kPa]
[1], 353.15 K | 142.4

CC(=O)N(C)C [N,N-dimethylethanamide] + CCCCCCC
[2], 413.15 K, 1824 kPa
Conditions | excess molar enthalpy [kcal/mol]
x2 = 0.016 | 0.0308
x2 = 0.0323 | 0.0619
x2 = 0.0659 | 0.122
x2 = 0.1007 | 0.177
x2 = 0.137 | 0.228
x2 = 0.1747 | 0.276
x2 = 0.2139 | 0.319
x2 = 0.2548 | 0.358
x2 = 0.2974 | 0.393
x2 = 0.3419 | 0.423
x2 = 0.3883 | 0.449
x2 = 0.4369 | 0.466
x2 = 0.4878 | 0.476
x2 = 0.5411 | 0.48
x2 = 0.597 | 0.474
x2 = 0.6557 | 0.456
x2 = 0.7175 | 0.427
x2 = 0.7825 | 0.376
x2 = 0.8511 | 0.299
x2 = 0.9234 | 0.181
x2 = 0.9612 | 0.0999

CCO [ethanol]
Conditions | vapor or sublimation pressure [kPa]
[1], 353.15 K | 108.42

CCCCCCC [heptane]
Conditions | vapor or sublimation pressure [kPa]
[1], 353.15 K | 57.09

CO [methanol]
Conditions | vapor or sublimation pressure [kPa]
[1], 343.15 K | 125.65

CC(=O)N(C)C [N,N-dimethylethanamide] + c1ccccc1
[2], 413.15 K, 1824 kPa
Conditions | excess molar enthalpy [kcal/mol]
x2 = 0.0261 | -0.0033
x2 = 0.0522 | -0.00617
x2 = 0.1042 | -0.0116
x2 = 0.1817 | -0.0187
x2 = 0.2586 | -0.0239
x2 = 0.3604 | -0.0277
x2 = 0.4361 | -0.0275
x2 = 0.5114 | -0.0241
x2 = 0.5861 | -0.0193
x2 = 0.6603 | -0.0129
x2 = 0.7584 | -0.00356
x2 = 0.8315 | 0.00311
x2 = 0.904 | 0.00703
x2 = 0.9521 | 0.00629
x2 = 0.9761 | 0.00411

CC(=O)N(C)C [N,N-dimethylethanamide]
[1]
Conditions | vapor or sublimation pressure
328.15 K | 1.61 kPa and 1.64 kPa
333.15 K | 2.23 kPa
343.15 K | 3.39 kPa
353.15 K | 5.32 kPa [middle of 5 runs]
363.15 K | 8.46 kPa

CC(=O)N(C)C [N,N-dimethylethanamide] + CCOC(C)=O
[2], 323.15 K, 1307 kPa
Conditions | excess molar enthalpy [kcal/mol]
x2 = 0.0476 | 0.00669
x2 = 0.0954 | 0.0126
x2 = 0.1435 | 0.0188
x2 = 0.1918 | 0.0239
x2 = 0.2404 | 0.0284
x2 = 0.2892 | 0.0327
x2 = 0.3383 | 0.0361
x2 = 0.3876 | 0.0392
x2 = 0.4372 | 0.0413
x2 = 0.487 | 0.043
x2 = 0.5371 | 0.044
x2 = 0.5875 | 0.0437
x2 = 0.6381 | 0.043
x2 = 0.689 | 0.0409
x2 = 0.7401 | 0.0382
x2 = 0.7916 | 0.0344
x2 = 0.8433 | 0.0287
x2 = 0.8952 | 0.0212
x2 = 0.9475 | 0.0119

C=CCCCCCC [oct-1-ene]
[1]
Conditions | vapor or sublimation pressure [kPa]
328.15 K | 10.12
363.15 K | 39.2

CC(=O)N(C)C [N,N-dimethylethanamide] + CCO
[2], 413.15 K, 1824 kPa
Conditions | excess molar enthalpy [kcal/mol]
x2 = 0.0774 | -0.0421
x2 = 0.1505 | -0.077
x2 = 0.2528 | -0.116
x2 = 0.3471 | -0.143
x2 = 0.462 | -0.163
x2 = 0.541 | -0.168
x2 = 0.6146 | -0.166
x2 = 0.6833 | -0.154
x2 = 0.7476 | -0.138
x2 = 0.8271 | -0.109
x2 = 0.8826 | -0.0805
x2 = 0.9349 | -0.049
x2 = 0.9681 | -0.0258

Cc1ccccc1 [toluene]
Conditions | vapor or sublimation pressure [kPa]
[1], 353.15 K | 38.92

c1ccccc1 [benzene]
Conditions | vapor or sublimation pressure [kPa]
[1], 328.15 K | 43.65

ClCCl [dichloromethane]
Conditions | vapor or sublimation pressure [kPa]
[1], 333.15 K | 197.94

C=CCCCCCC [oct-1-ene] + CC(=O)N(C)C
[2], 363.15 K, 1858 kPa
Conditions | excess molar enthalpy [kcal/mol]
x1 = 0.03 | 0.0437
x1 = 0.0612 | 0.0906
x1 = 0.0938 | 0.135
x1 = 0.1279 | 0.176
x1 = 0.1636 | 0.213
x1 = 0.201 | 0.249
x1 = 0.2401 | 0.281
x1 = 0.2812 | 0.31
x1 = 0.3244 | 0.336
x1 = 0.3698 | 0.357
x1 = 0.4177 | 0.37
x1 = 0.4682 | 0.379
x1 = 0.5215 | 0.383
x1 = 0.5779 | 0.38
x1 = 0.6377 | 0.368
x1 = 0.7013 | 0.344
x1 = 0.7688 | 0.304
x1 = 0.8408 | 0.243
x1 = 0.9177 | 0.149
